# Data from article PMC10150365 (Journal of Medicinal Chemistry, 2023).
# Experiments:
# [1] = target: T1, Endothelin ETA (Homo sapiens, UniProt P25101); assay: Cerep SafetyScreen-87; format: binding; details: n=2
# T1 construct: purchased Eurofins Cerep/Panlabs SafetyScreen-87
# [2] = target: T2, Melanocortin MC4 (Homo sapiens, UniProt P32245); assay: Cerep SafetyScreen-87; format: binding; details: n=2
# T2 construct: purchased Eurofins Cerep/Panlabs SafetyScreen-87
# [3] = target: T3, Adrenergic β2 (Homo sapiens, UniProt P07550); assay: Cerep SafetyScreen-87; format: binding; details: n=2
# T3 construct: purchased Eurofins Cerep/Panlabs SafetyScreen-87
# [4] = target: T4, GABAB1A (Homo sapiens, UniProt Q9UBS5); assay: Cerep SafetyScreen-87; format: binding; details: n=2
# T4 construct: purchased Eurofins Cerep/Panlabs SafetyScreen-87
# [5] = target: T5, Cholecystokinin (CCKB) (Homo sapiens, UniProt P32239); assay: Cerep SafetyScreen-87; format: binding; details: n=2
# T5 construct: purchased Eurofins Cerep/Panlabs SafetyScreen-87
# [6] = target: T6, Histamine H1 (Homo sapiens, UniProt P35367); assay: Cerep SafetyScreen-87; format: binding; details: n=2
# T6 construct: purchased Eurofins Cerep/Panlabs SafetyScreen-87
# [7] = target: T7, Muscarinic M2 (Homo sapiens, UniProt P08172); assay: Cerep SafetyScreen-87; format: binding; details: n=2
# T7 construct: purchased Eurofins Cerep/Panlabs SafetyScreen-87
# [8] = target: T8, Peptidase, CTSG (Cathepsin G) (Homo sapiens, UniProt P08311); assay: Cerep SafetyScreen-87; format: biochemical; details: n=2
# T8 construct: purchased Eurofins Cerep/Panlabs SafetyScreen-87
# [9] = target: T9, Chemokine CXCR2 (IL-8RB) (Homo sapiens, UniProt P25025); assay: Cerep SafetyScreen-87; format: binding; details: n=2
# T9 construct: purchased Eurofins Cerep/Panlabs SafetyScreen-87
# [10] = target: T10, Serotonin (5-Hydroxytryptamine) 5-HT1B (Homo sapiens, UniProt P28222); assay: Cerep SafetyScreen-87; format: binding; details: n=2
# T10 construct: purchased Eurofins Cerep/Panlabs SafetyScreen-87
# [11] = target: T11, Peptidase, Angiotensin Converting Enzyme (Oryctolagus cuniculus, UniProt P12822); assay: Cerep SafetyScreen-87; format: biochemical, rabbit; details: n=2
# T11 construct: purchased Eurofins Cerep/Panlabs SafetyScreen-87
# [12] = target: T12, Opiate µ (OP3, MOP) (Homo sapiens, UniProt P35372); assay: Cerep SafetyScreen-87; format: binding; details: n=2
# T12 construct: purchased Eurofins Cerep/Panlabs SafetyScreen-87
# [13] = target: T13, Adrenergic α1A (Rattus norvegicus, UniProt P43140); assay: Cerep SafetyScreen-87; format: binding; details: n=2
# T13 construct: purchased Eurofins Cerep/Panlabs SafetyScreen-87
# [14] = target: T14, Glucocorticoid (Homo sapiens, UniProt P04150); assay: Cerep SafetyScreen-87; format: binding; details: n=2
# T14 construct: purchased Eurofins Cerep/Panlabs SafetyScreen-87
# [15] = target: T15, Adrenergic α1D (Homo sapiens, UniProt P25100); assay: Cerep SafetyScreen-87; format: binding; details: n=2
# T15 construct: purchased Eurofins Cerep/Panlabs SafetyScreen-87
# [16] = target: T16, Muscarinic M1 (Homo sapiens, UniProt P11229); assay: Cerep SafetyScreen-87; format: binding; details: n=2
# T16 construct: purchased Eurofins Cerep/Panlabs SafetyScreen-87
# [17] = target: T17, Protein Tyrosine Kinase, Insulin Receptor (Homo sapiens, UniProt P06213); assay: Cerep SafetyScreen-87; format: biochemical; details: n=2
# T17 construct: purchased Eurofins Cerep/Panlabs SafetyScreen-87
# [18] = target: T18, Cholinesterase, Acetyl, ACES (Homo sapiens, UniProt P22303); assay: Cerep SafetyScreen-87; format: biochemical; details: n=2
# T18 construct: purchased Eurofins Cerep/Panlabs SafetyScreen-87
# [19] = target: T19, PPARγ (Homo sapiens, UniProt P37231); assay: Cerep SafetyScreen-87; format: binding; details: n=2
# T19 construct: purchased Eurofins Cerep/Panlabs SafetyScreen-87
# [20] = target: T20, Serotonin (5-Hydroxytryptamine) 5-HT1A (Homo sapiens, UniProt P08908); assay: Cerep SafetyScreen-87; format: binding; details: n=2
# T20 construct: purchased Eurofins Cerep/Panlabs SafetyScreen-87
# [21] = target: Glutamate, NMDA, Glycine (Rattus norvegicus, UniProt P35439); assay: Cerep SafetyScreen-87; format: binding; details: n=2
# [22] = target: T21, Cyclooxigenase COX-2 (Homo sapiens, UniProt P35354); assay: Cerep SafetyScreen-87; format: biochemical; details: n=2
# T21 construct: purchased Eurofins Cerep/Panlabs SafetyScreen-87
# [23] = target: Adenosine A2A (Homo sapiens, UniProt P29274); format: cell-based; design: Cerep (contract assay) test=2527; details: functional assay, antagonist mode; read-out: adenosine A2A antagonism IC50
# [24] = target: T22, Leukotriene, Cysteinyl CysLT1 (Homo sapiens, UniProt Q9Y271); assay: Cerep SafetyScreen-87; format: binding; details: n=2
# T22 construct: purchased Eurofins Cerep/Panlabs SafetyScreen-87
# [25] = target: T23, Opiate K (OP2, KOP) (Homo sapiens, UniProt P41145); assay: Cerep SafetyScreen-87; format: binding; details: n=2
# T23 construct: purchased Eurofins Cerep/Panlabs SafetyScreen-87
# [26] = target: T24, Cyclooxigenase COX-1 (Homo sapiens, UniProt P23219); assay: Cerep SafetyScreen-87; format: biochemical; details: n=2
# T24 construct: purchased Eurofins Cerep/Panlabs SafetyScreen-87
# [27] = target: T25, Opiate δ1 (OP1, DOP) (Homo sapiens, UniProt P41143); assay: Cerep SafetyScreen-87; format: binding; details: n=2
# T25 construct: purchased Eurofins Cerep/Panlabs SafetyScreen-87
# [28] = target: T26, Angiotensin AT1 (Homo sapiens, UniProt P30556); assay: Cerep SafetyScreen-87; format: binding; details: n=2
# T26 construct: purchased Eurofins Cerep/Panlabs SafetyScreen-87
# [29] = target: T27, Estrogen ERα (Homo sapiens, UniProt P03372); assay: Cerep SafetyScreen-87; format: binding; details: n=2
# T27 construct: purchased Eurofins Cerep/Panlabs SafetyScreen-87
# [30] = target: T28, Monoamine Oxidase MAO-B (Homo sapiens, UniProt P27338); assay: Cerep SafetyScreen-87; format: biochemical; details: n=2
# T28 construct: purchased Eurofins Cerep/Panlabs SafetyScreen-87
# [31] = target: T29, Dopamine D1 (Homo sapiens, UniProt P21728); assay: Cerep SafetyScreen-87; format: binding; details: n=2
# T29 construct: purchased Eurofins Cerep/Panlabs SafetyScreen-87
# [32] = target: T30, Bradykinin B2 (Homo sapiens, UniProt P30411); assay: Cerep SafetyScreen-87; format: binding; details: n=2
# T30 construct: purchased Eurofins Cerep/Panlabs SafetyScreen-87
# [33] = target: T31, Tachykinin NK1 (Homo sapiens, UniProt P25103); assay: Cerep SafetyScreen-87; format: binding; details: n=2
# T31 construct: purchased Eurofins Cerep/Panlabs SafetyScreen-87
# [34] = target: T32, Transporter, Serotonin (5-Hydroxytryptamine) (SERT) (Homo sapiens, UniProt P31645); assay: Cerep SafetyScreen-87; format: binding; details: n=2
# T32 construct: purchased Eurofins Cerep/Panlabs SafetyScreen-87
# [35] = target: T33, Dopamine D2L (Homo sapiens, UniProt P14416); assay: Cerep SafetyScreen-87; format: binding; details: n=2
# T33 construct: purchased Eurofins Cerep/Panlabs SafetyScreen-87
# [36] = target: T34, Cholecystokinin CCK1 (CCKA) (Homo sapiens, UniProt P32238); assay: Cerep SafetyScreen-87; format: binding; details: n=2
# T34 construct: purchased Eurofins Cerep/Panlabs SafetyScreen-87
# [37] = target: T35, Adrenergic α2B (Homo sapiens, UniProt P18089); assay: Cerep SafetyScreen-87; format: binding; details: n=2
# T35 construct: purchased Eurofins Cerep/Panlabs SafetyScreen-87
# [38] = target: T36, Melanocortin MC1 (Homo sapiens, UniProt Q01726); assay: Cerep SafetyScreen-87; format: binding; details: n=2
# T36 construct: purchased Eurofins Cerep/Panlabs SafetyScreen-87
# [39] = target: T37, Protein Tyrosine Kinase, LCK (Homo sapiens, UniProt P06239); assay: Cerep SafetyScreen-87; format: biochemical; details: n=2
# T37 construct: purchased Eurofins Cerep/Panlabs SafetyScreen-87
# [40] = target: T38, Calcium Channel N-type (Rattus norvegicus, UniProt Q02294); assay: Cerep SafetyScreen-87; format: binding; details: n=2
# T38 construct: purchased Eurofins Cerep/Panlabs SafetyScreen-87
# [41] = target: T39, Serotonin (5-Hydroxytryptamine) 5-HT2C (Homo sapiens, UniProt P28335); assay: Cerep SafetyScreen-87; format: binding; details: n=2
# T39 construct: purchased Eurofins Cerep/Panlabs SafetyScreen-87
# T25 sequence (P41143 whole entry): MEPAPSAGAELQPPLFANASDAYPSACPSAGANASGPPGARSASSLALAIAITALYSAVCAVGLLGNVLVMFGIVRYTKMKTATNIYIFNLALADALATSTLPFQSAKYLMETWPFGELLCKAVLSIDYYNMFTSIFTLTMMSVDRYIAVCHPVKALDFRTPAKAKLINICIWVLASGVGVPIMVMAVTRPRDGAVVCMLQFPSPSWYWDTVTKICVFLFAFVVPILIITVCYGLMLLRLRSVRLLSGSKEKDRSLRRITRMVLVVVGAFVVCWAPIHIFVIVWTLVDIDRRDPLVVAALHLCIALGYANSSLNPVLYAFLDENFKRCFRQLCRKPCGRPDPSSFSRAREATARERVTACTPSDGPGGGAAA
# T7 sequence (P08172 whole entry): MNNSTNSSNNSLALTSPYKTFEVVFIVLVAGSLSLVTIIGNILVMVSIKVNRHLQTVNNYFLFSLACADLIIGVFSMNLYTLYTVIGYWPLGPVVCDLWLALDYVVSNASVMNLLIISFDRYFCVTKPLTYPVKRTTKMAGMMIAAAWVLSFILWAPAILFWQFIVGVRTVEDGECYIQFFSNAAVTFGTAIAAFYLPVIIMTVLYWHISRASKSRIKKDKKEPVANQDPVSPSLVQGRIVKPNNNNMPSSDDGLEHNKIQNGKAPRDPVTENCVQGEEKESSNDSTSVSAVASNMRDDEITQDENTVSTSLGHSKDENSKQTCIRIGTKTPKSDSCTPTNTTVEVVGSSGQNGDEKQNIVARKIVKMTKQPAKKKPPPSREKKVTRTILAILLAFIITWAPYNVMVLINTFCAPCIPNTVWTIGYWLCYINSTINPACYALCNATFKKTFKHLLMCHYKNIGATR
# T6 sequence (P35367 whole entry): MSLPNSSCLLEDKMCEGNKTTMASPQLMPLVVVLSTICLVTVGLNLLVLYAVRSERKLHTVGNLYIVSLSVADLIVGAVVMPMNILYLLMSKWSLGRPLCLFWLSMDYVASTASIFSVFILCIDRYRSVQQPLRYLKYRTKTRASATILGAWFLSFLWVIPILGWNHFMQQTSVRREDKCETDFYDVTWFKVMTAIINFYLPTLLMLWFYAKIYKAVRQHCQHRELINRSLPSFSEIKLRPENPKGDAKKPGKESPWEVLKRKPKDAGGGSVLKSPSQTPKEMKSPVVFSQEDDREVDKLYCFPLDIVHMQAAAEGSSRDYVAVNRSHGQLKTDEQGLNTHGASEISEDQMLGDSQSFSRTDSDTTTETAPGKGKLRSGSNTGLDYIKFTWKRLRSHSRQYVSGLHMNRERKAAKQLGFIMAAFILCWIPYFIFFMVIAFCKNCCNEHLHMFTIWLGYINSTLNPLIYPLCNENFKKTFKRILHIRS
# T4 sequence (Q9UBS5 15-961 limits assumed): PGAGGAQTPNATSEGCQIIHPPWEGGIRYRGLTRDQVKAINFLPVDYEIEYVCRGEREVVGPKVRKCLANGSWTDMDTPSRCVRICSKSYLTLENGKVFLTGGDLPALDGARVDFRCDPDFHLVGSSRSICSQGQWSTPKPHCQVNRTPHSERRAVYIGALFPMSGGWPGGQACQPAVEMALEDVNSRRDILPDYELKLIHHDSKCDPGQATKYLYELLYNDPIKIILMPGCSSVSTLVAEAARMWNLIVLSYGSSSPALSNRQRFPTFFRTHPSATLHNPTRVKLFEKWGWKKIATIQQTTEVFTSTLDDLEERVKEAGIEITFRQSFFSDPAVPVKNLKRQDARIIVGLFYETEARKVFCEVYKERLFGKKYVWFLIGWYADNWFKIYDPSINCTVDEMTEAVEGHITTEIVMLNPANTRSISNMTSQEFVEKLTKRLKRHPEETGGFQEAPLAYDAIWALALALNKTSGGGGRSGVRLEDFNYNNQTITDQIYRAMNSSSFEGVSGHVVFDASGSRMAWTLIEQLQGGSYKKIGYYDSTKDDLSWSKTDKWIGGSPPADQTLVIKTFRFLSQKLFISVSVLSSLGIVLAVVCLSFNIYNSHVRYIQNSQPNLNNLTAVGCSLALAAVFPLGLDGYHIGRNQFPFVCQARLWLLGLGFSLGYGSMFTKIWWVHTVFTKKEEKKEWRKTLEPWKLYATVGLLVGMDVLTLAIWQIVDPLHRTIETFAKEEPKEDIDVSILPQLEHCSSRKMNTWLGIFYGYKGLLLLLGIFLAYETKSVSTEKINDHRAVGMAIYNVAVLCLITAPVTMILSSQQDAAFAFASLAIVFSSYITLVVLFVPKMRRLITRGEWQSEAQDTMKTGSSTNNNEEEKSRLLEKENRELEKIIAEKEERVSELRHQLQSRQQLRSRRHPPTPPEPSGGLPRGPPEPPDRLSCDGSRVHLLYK
# T4 sequence (O75899 42-941 partner): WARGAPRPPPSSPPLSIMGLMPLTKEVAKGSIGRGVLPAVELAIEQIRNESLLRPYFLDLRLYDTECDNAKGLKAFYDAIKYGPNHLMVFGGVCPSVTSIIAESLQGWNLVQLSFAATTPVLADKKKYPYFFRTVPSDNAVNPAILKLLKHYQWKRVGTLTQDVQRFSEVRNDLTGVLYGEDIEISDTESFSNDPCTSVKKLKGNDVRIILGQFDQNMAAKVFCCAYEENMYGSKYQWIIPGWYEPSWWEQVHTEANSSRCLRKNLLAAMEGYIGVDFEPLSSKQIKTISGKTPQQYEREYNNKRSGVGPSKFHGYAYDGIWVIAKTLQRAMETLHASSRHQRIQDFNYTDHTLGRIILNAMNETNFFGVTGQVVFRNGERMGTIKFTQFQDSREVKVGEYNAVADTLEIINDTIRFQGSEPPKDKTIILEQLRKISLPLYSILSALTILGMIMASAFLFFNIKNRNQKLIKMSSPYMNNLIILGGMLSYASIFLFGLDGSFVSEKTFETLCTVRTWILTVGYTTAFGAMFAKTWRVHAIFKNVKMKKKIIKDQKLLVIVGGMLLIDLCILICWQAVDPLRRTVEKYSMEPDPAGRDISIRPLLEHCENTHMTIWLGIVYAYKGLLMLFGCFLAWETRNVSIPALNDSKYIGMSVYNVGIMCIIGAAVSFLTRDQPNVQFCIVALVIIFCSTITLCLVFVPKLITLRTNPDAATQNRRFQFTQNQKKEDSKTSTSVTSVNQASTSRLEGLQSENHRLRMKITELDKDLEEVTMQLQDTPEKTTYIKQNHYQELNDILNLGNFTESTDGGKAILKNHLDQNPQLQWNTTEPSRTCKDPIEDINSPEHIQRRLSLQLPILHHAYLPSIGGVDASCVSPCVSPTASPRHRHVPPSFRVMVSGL
# T29 sequence (P21728 whole entry): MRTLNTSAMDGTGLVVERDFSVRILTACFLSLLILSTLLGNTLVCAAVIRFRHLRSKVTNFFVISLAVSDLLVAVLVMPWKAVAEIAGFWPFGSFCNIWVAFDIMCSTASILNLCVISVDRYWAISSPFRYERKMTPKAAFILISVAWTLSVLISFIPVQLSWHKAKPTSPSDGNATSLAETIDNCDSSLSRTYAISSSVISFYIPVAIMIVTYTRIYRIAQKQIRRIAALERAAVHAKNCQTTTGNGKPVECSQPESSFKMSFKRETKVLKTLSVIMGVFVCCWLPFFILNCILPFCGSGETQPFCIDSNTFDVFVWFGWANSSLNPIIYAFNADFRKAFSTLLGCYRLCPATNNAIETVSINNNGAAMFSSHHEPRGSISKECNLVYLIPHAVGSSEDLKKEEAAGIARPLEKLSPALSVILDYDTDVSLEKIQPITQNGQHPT
# T26 sequence (P30556 whole entry): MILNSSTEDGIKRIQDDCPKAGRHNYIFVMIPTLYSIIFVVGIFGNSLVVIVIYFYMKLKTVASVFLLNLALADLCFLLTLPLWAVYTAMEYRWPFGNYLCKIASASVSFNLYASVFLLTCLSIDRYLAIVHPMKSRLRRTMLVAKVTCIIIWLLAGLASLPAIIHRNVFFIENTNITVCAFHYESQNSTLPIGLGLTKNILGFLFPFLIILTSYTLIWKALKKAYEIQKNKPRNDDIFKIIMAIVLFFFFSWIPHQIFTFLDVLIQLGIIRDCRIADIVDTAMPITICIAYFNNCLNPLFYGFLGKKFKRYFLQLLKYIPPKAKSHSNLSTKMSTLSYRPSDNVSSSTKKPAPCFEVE
# T3 sequence (P07550 whole entry): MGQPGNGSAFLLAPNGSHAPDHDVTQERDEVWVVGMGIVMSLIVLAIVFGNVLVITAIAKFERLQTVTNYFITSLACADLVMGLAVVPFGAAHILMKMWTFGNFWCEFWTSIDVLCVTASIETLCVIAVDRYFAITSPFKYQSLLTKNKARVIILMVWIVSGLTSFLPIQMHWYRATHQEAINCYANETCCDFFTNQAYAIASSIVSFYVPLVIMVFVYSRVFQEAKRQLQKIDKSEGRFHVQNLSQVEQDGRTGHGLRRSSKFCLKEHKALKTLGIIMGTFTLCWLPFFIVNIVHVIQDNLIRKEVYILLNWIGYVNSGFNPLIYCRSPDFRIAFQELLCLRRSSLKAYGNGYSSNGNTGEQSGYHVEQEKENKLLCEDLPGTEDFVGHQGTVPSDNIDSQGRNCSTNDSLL
# T36 sequence (Q01726 whole entry): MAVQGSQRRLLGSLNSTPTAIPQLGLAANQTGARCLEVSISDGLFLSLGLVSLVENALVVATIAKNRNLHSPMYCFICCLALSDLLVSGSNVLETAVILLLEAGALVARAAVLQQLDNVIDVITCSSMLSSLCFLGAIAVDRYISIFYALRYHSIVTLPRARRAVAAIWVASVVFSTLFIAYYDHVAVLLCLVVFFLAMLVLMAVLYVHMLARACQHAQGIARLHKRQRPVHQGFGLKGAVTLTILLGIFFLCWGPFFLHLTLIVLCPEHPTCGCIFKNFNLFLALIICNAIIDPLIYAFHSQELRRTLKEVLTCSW
# T8 sequence (P08311 21-255): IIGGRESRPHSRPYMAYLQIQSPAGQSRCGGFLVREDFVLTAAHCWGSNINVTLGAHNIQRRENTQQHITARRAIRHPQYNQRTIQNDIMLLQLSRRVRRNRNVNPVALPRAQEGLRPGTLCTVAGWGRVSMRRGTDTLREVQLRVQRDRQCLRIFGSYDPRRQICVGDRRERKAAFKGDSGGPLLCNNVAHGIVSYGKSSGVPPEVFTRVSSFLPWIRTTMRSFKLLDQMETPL
compound,measurement,setting,value
"CCN1CCN(Cc2ccc3cc(C(=O)Nc4cc(NC(=O)c5ccc6c(c5)OCCO6)ccc4F)ccc3n2)CC1 [Compound 22, N-(5-(2,3-Dihydrobenzo[b][1,4]dioxine-6-carboxamido)-2-fluorophenyl)-2-((4-ethylpiperazin-1-yl)methyl)quinoline-6-carboxamide]",inhibition at 10 µM,[1],-2%
same,inhibition at 10 µM,[2],2%
same,inhibition at 10 µM,[3],12%
same,inhibition at 10 µM,[4],4%
same,inhibition at 10 µM,[5],-4%
same,inhibition at 10 µM,[6],36%
same,inhibition at 10 µM,[7],52%
same,inhibition at 10 µM,[8],1%
same,inhibition at 10 µM,[9],7%
same,inhibition at 10 µM,[10],43%
same,inhibition at 10 µM,[11],13%
same,inhibition at 10 µM,[12],44%
same,inhibition at 10 µM,[13],38%
same,inhibition at 10 µM,[14],9%
same,inhibition at 10 µM,[15],25%
same,inhibition at 10 µM,[16],43%
same,inhibition at 10 µM,[17],-7%
same,inhibition at 10 µM,[18],2%
same,inhibition at 10 µM,[19],11%
same,inhibition at 10 µM,[20],4%
same,inhibition at 10 µM,[21],-24%
same,inhibition at 10 µM,[22],-5%
same,IC50,[23],2000 nM
same,inhibition at 10 µM,[24],7%
same,inhibition at 10 µM,[25],51%
same,inhibition at 10 µM,[26],-24%
same,inhibition at 10 µM,[27],9%
same,inhibition at 10 µM,[28],1%
same,inhibition at 10 µM,[29],-1%
same,inhibition at 10 µM,[30],36%
same,inhibition at 10 µM,[31],41%
same,inhibition at 10 µM,[32],0%
same,inhibition at 10 µM,[33],14%
same,inhibition at 10 µM,[34],25%
same,inhibition at 10 µM,[35],20%
same,inhibition at 10 µM,[36],9%
same,inhibition at 10 µM,[37],79%
same,inhibition at 10 µM,[38],-3%
same,inhibition at 10 µM,[39],-8%
same,inhibition at 10 µM,[40],9%
same,inhibition at 10 µM,[41],55%
